Assay results as given in ChEMBL document CHEMBL1142690, “Synthesis of NO-donor bisphosphonates and their in-vitro action on bone resorption” (J Med Chem, 2005).

Experiments:
[1] = tested on: RAW264.7; experiment: Effect of compound on osteoclasts formation (compound concentration of 100 nM, RANKL at 50 ng/ml and ODQ at 10 uM) as observed in clonal RAW264.7 cells; type: functional, Mus musculus
[2] = Affinity for hydroxyapatite after 24 hours; type: functional
[3] = tested on: RAW264.7; experiment: Effect of compound on osteoclasts formation (compound concentration of 100 nM and RANKL at 50 ng/ml) as observed in clonal RAW264.7 cells; type: functional, Mus musculus
[4] = Dissociation constant determined by the pH-metric method; type: functional
[5] = species: Rattus norvegicus; experiment: Effect of compound on osteoclasts formation at concentration of 100 nM in rat femurs; type: functional, Femur
[6] = tested on: Rattus; experiment: Effect of compound on osteoclast resorption activity at concentration of 100 nM in rat femur; type: functional
[7] = tested on: Rattus; experiment: Effect of compound on osteoclast resorption activity at concentration of 100 nM in rat femurs; type: functional, Femur

| Structure (SMILES) | Count [1] | Affinity [2] [%] | Count [3] | pKa1 [4] | pKa2 [4] | pKa3 [4] | pKa4 [4] | Count [5] | Ratio [6] | Ratio [7] |
| --- | --- | --- | --- | --- | --- | --- | --- | --- | --- | --- |
| O=[N+]([O-])OCCCCC(O)(P(=O)(O)O)P(=O)(O)O | 59.6 | 43.4 | 32.8 | < 1.5 | 2.85 | 6.83 | 11.3 | – | – | – |
| CCCCC(P(=O)(O)O)P(=O)(O)O | 62.4 | – | 61.2 | – | – | – | – | – | – | – |
| CCCCCN(C)CCC(O)(P(=O)(O)O)P(=O)(O)O [IBANDRONIC ACID] | 34.2 | – | 39.8 | – | – | – | – | – | – | – |
| O=[N+]([O-])OCCCCC(P(=O)(O)O)P(=O)(O)O | 58.9 | 65 | 40.2 | < 1.5 | 3.08 | 6.87 | 11.5 | 21.88 | 1.18 | – |
| O=P(O)(O)C(Sc1ccc(Cl)cc1)P(=O)(O)O | – | 58.4 | – | < 1.5 | 2.27 | 6.31 | 10.6 | – | – | – |
| CC(C)C[C@H](NC(=O)[C@H](CCCCN)NC(=O)CNC(=O)[C@H](CC(C)C)NC(=O)[C@@H](NC(=O)[C@@H]1CSSC[C@H](N)C(=O)N[C@@H](CO)C(=O)N[C@@H](CC(N)=O)C(=O)N[C@@H](CC(C)C)C(=O)N[C@@H](CO)C(=O)N[C@@H]([C@@H](C)O)C(=O)N1)C(C)C)C(=O)N[C@@H](CO)C(=O)N[C@@H](CCC(N)=O)C(=O)N[C@@H](CCC(=O)O)C(=O)N[C@@H](CC(C)C)C(=O)N[C@@H](Cc1c[nH]cn1)C(=O)N[C@@H](CCCCN)C(=O)N[C@@H](CC(C)C)C(=O)N[C@@H](CCC(N)=O)C(=O)N[C@H](C(=O)N[C@@H](Cc1ccc(O)cc1)C(=O)N1CCC[C@H]1C(=O)N[C@@H](CCCNC(=N)N)C(=O)N[C@H](C(=O)N[C@@H](CC(N)=O)C(=O)N[C@H](C(=O)NCC(=O)N[C@@H](CO)C(=O)NCC(=O)N[C@H](C(=O)N1CCC[C@H]1C(N)=O)[C@@H](C)O)[C@@H](C)O)[C@@H](C)O)[C@@H](C)O [CALCITONIN SALMON] | – | – | – | – | – | – | – | 27.5 | – | 0.01 |
